Laboratory results from patent US10544106B2, “Certain chemical entities, compositions, and methods” (NeuPharma, Inc., priority 2016, dated 2020).

What was measured:
BTK = BTK (Homo sapiens (Human), UniProt Q06187); assay: Z'-LYTE kinase inhibition assay against BTK; format: biochemical; conditions: for inhibition at 0.1 µM: compound at 100 nM, ATP concentration at Km; for IC50: series of concentrations, GraphPad Prism 5
Procedure, shortened: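 Compounds were titrated over 10 points (3-fold steps, 1% DMSO) against BTK (1.04-10.4 ng) using Tyr 01 substrate at 2 μM and ATP at Km, pH 7.5 HEPES buffer with MgCl2 and EGTA. After one hour each of reaction and development at room temperature, fluorescence gave percent inhibition and IC50.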

OCI-Ly10 cells = assay: OCI-Ly10 cell proliferation assay (Alamar Blue, 72 hours); format: cell-based; conditions: Homo sapiens
Method: OCI-Ly10 cells were cultured in Iscove's DMEM supplemented with 20% fetal bovine serum and 1× penicillin/streptomycin/glutamine. The cells were maintained in T175 flasks under 5% CO2 in a 37 ° C. humidified incubator for 5 days prior to plating and assay.
Cells were pooled by centrifugation (200 ref, 8 minutes) and resuspended in fresh medium to a concentration of 2.00E+05 cells/ml. 200 µl of the cell suspension was added to each well (40,000 cells/well) of a black-walled 96 well plate to which 1 μl of compound (n=3 per concentration) in 100% DMSO (0.5% final concentration) was added per well. Vehicle and cell free wells were also included in the assay. The dosed cells were cultured under normal conditions for 72 hours.
Cell proliferation is measured using the dye Alamar Blue (resazurin). Resazurin is reduced to resorufin by cellular enzymes and is fluorescent (544 nm excitation, 612 nm emission). Fluorescence intensity is proportional to cell number. Resazurin was prepared in PBS to a stock concentration of 440 μM. 40 μl of the 440 μM resazurin stock solution was added 3 hours prior to the 72 hour termination of the assay. The plate was returned to normal culture conditions and fluorescence measurements were collected using a Cytation3 multimode plate reader (Biotek) at 72 hours.
The scale utilized in Table 8 is as follows: ++ less than 50 nM and + greater than 50 nM.

Chain of BTK (Q06187 whole entry): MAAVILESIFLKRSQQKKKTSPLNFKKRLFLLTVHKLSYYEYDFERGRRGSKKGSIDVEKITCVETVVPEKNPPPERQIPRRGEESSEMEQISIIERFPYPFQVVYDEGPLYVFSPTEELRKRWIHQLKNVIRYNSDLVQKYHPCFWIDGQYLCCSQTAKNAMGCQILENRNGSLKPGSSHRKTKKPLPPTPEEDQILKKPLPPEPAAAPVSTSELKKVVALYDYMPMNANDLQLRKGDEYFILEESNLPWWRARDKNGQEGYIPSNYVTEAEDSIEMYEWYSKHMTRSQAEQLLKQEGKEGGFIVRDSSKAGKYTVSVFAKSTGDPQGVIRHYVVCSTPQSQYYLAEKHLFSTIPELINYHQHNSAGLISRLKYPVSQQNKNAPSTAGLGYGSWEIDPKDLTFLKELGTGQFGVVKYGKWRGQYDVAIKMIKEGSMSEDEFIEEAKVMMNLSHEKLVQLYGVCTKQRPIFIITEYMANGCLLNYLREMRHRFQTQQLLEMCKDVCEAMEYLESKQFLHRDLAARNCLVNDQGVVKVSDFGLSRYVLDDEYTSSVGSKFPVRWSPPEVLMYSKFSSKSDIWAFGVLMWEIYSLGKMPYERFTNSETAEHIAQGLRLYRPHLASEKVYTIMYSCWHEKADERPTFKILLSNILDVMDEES

SMILES | inhibition at 0.1 µM (BTK) [%] | IC50 (BTK) [nM] | IC50 (OCI-Ly10 cells) [nM]
C=CC(=O)Nc1cccc(-c2cc(-c3ccc(Oc4ncccc4F)cc3F)cc3cncnc23)c1 [C105, N-(3-(6-(2-fluoro-4-((3-fluoropyridin-2-yl)oxy)phenyl)quinazolin-8-yl)phenyl)acrylamide] | > 50 | < 100 | < 50
C=CC(=O)Nc1cccc(-c2cc(-c3ccc(C(=O)Nc4ccccc4)cc3F)cc3cncnc23)c1 [C089, 4-(8-(3-Acrylamidophenyl)quinazolin-6-yl)-3-fluoro-N-phenylbenzamide] | > 50 | – | –
C=CC(=O)N1CCC(c2cc(-c3ccc(Oc4cc(C(F)(F)F)ccn4)cc3)cc3cnc(N)nc23)C1 (stereo not drawn) [C104, 1-(3-(2-amino-6-(4-((4-(trifluoromethyl)pyridin-2-yl)oxy)phenyl)quinazolin-8-yl)pyrrolidin-1-yl)prop-2-en-1-one] | < 50 | – | –
C=CC(=O)N1CCC(c2cc(-c3ccc(Oc4ccccc4)cc3)n3cnccc23)C1 (stereo not drawn) [C063, 1-(3-(7-(4-phenoxyphenyl)pyrrolo[1,2-c]pyrimidin-5-yl)pyrrolidin-1-yl)prop-2-en-1-one] | > 50 | – | –
C=CC(=O)N1CCC(c2cc(-c3ccc(C(=O)Nc4ccccn4)cc3Cl)cc3cncnc23)C1 (stereo not drawn) [C067, 4-(8-(1-acryloylpyrrolidin-3-yl)quinazolin-6-yl)-3-chloro-N-(pyridin-2-yl)benzamide] | > 50 | < 100 | –
C=CC(=O)Nc1cccc(-c2cc(-c3ccccn3)cc3cncnc23)c1 [C118, N-(3-(6-(pyridin-2-yl)quinazolin-8-yl)phenyl)acrylamide] | > 50 | – | –
C=CC(=O)Nc1cccc(-n2c(-c3ccccc3)nc3cnc(N)nc32)c1 [C024, N-(3-(2-amino-8-phenyl-9H-purin-9-yl)phenyl)acrylamide] | < 50 | – | –
C=CC(=O)N1CCC(c2ccc(-c3ccc(C(=O)Nc4ccccn4)cc3)c3cncnc23)C1 (stereo not drawn) [C049, 4-(8-(1-acryloylpyrrolidin-3-yl)quinazolin-5-yl)-N-(pyridin-2-yl)benzamide] | < 50 | – | –
C=CC(=O)Nc1cccc(-c2cc(-c3ccc(Oc4cc(C(F)(F)F)ccn4)cc3Cl)cc3cncnc23)c1 [C088, N-(3-(6-(2-chloro-4-((4-(trifluoromethyl)pyridin-2-yl)oxy)phenyl)quinazolin-8-yl)phenyl)acrylamide] | > 50 | – | –
C=CC(=O)Nc1cccc(-c2cc(-c3ccccc3)cc3cnc(-c4ccccc4)nc23)c1 [C001, N-(3-(2,6-diphenylquinazolin-8-yl)phenyl)acrylamide] | < 50 | – | –
C=CC(=O)Nc1cccc(-c2cc(-c3cncc(F)c3)cc3cnc(N)nc23)c1 [C111, N-(3-(2-amino-6-(5-fluoropyridin-3-yl)quinazolin-8-yl)phenyl)acrylamide] | > 50 | < 100 | –
C=CC(=O)Nc1cccc(-c2cc(-c3ccccc3C#N)cc3cncnc23)c1 [C075, N-(3-(6-(2-cyanophenyl)quinazolin-8-yl)phenyl)acrylamide] | > 50 | < 100 | –
C=CC(=O)Nc1cccc(-c2cc(-c3cccc(Nc4cccc(C(F)(F)F)c4)c3)cc3cncnc23)c1 [C011, N-(3-(6-(3-((3-(trifluoromethyl)phenyl)amino)phenyl)quinazolin-8-yl)phenyl)acrylamide] | < 50 | – | –
C=CC(=O)N1CCC(c2cc(-c3ccc(C(=O)Nc4cc(C5CC5)ccn4)cc3)cc3cncnc23)C1 (stereo not drawn) [C123, 4-(8-(1-acryloylpyrrolidin-3-yl)quinazolin-6-yl)-N-(4-cyclopropylpyridin-2-yl)benzamide] | > 50 | – | –
C=CC(=O)N1CCC(c2cc(-c3ccc(C(=O)Nc4cccc(C)c4)nc3)cc3cncnc23)C1 (stereo not drawn) [C080, 5-(8-(1-acryloylpyrrolidin-3-yl)quinazolin-6-yl)-N-(m-tolyl)picolinamide] | < 50 | – | –
C=CC(=O)Nc1cccc(-c2cc(-c3ccc(C(=O)Nc4cc(C(F)(F)F)ccn4)cc3Cl)cc3cncnc23)c1 [C116, 4-(8-(3-acrylamidophenyl)quinazolin-6-yl)-3-chloro-N-(4-(trifluoromethyl)pyridin-2-yl)benzamide] | > 50 | < 100 | –
C=CC(=O)Nc1cccc(-c2cc(-c3ccc(C(=O)Nc4ccccn4)nc3)cc3cncnc23)c1 [C069, 5-(8-(3-acrylamidophenyl)quinazolin-6-yl)-N-(pyridin-2-yl)picolinamide] | > 50 | – | –
C=CC(=O)Nc1cccc(-c2cc(-c3ccccc3)cc3cnc(N)nc23)c1 [C005, N-(3-(2-amino-6-phenylquinazolin-8-yl)phenyl)acrylamide] | > 50 | < 100 | –
C=CC(=O)N1CCC(c2cc(-c3ccc(Oc4ccccn4)cc3F)cc3cncnc23)C1 (stereo not drawn) [C114, 1-(3-(6-(2-fluoro-4-(pyridin-2-yloxy)phenyl)quinazolin-8-yl)pyrrolidin-1-yl)prop-2-en-1-one] | > 50 | – | –
C=CC(=O)Nc1cccc(-c2cc(-c3cncc(C(F)(F)F)c3)cc3cncnc23)c1 [C055, N-(3-(6-(5-(trifluoromethyl)pyridin-3-yl)quinazolin-8-yl)phenyl)acrylamide] | > 50 | – | –

Results, then the compound that gave them:

inhibition at 0.1 µM (BTK) [%] | IC50 (BTK) [nM] | IC50 (OCI-Ly10 cells) [nM] | SMILES
< 50 | – | – | C=CC(=O)N1CCC(c2cc(-c3ccc(C(=O)Nc4cc(C#N)ccn4)cc3F)n3cnccc23)C1 (stereo not drawn) [C151, 4-(5-(1-acryloylpyrrolidin-3-yl)pyrrolo[1,2-c]pyrimidin-7-yl)-N-(4-cyanopyridin-2-yl)-3-fluorobenzamide]
< 50 | – | – | C=CC(=O)Nc1cccc(-c2cc(-c3ccc(Oc4ccccn4)cc3F)c(N)c3cncnc23)c1 [C173, N-(3-(5-amino-6-(2-fluoro-4-(pyridin-2-yloxy)phenyl)quinazolin-8-yl)phenyl)acrylamide]
> 50 | – | – | C=CC(=O)N1CCC(c2cc(-c3ccc(Oc4ccccn4)c(F)c3)cc3cncnc23)C1 (stereo not drawn) [C160, 1-(3-(6-(3-fluoro-4-(pyridin-2-yloxy)phenyl)quinazolin-8-yl)pyrrolidin-1-yl)prop-2-en-1-one]
< 50 | – | – | CC#CC(=O)N1CCC(c2nc(-c3ccc(Oc4ncccc4C(F)(F)F)cc3)n3c(N)nccc23)C1 (stereo not drawn) [C219, 1-(3-(5-amino-3-(4-((3-(trifluoromethyl)pyridin-2-yl)oxy)phenyl)imidazo[1,5-c]pyrimidin-1-yl)pyrrolidin-1-yl)but-2-yn-1-one]
> 50 | < 100 | – | C=CC(=O)N1CCC(c2nc(-c3ccc(Oc4cc(OC)ccn4)c(F)c3)n3c(N)nccc23)C1 (stereo not drawn) [C216, 1-(3-(5-amino-3-(3-fluoro-4-((4-methoxy-pyridin-2-yl)oxy)phenyl)imidazo[1,5-c]pyrimidin-1-yl)pyrrolidin-1-yl)prop-2-en-1-one]
> 50 | – | – | C=CC(=O)N1CCC(c2nc(-c3ccc(Oc4ncccc4C(F)(F)F)c(F)c3)n3c(N)nccc23)C1 (stereo not drawn) [C223, 1-(3-(5-amino-3-(3-fluoro-4-((3-(trifluoro-methyl)pyridin-2-yl)oxy)phenyl)imidazo[1,5-c]pyrimidin-1-yl)pyrrolidin-1-yl)prop-2-en-1-one]
< 50 | – | – | C=CC(=O)N1CCC(c2cc(-c3ccc(Oc4ccccn4)cc3OC)n3cnccc23)C1 (stereo not drawn) [C169, 1-(3-(7-(2-methoxy-4-(pyridin-2-yloxy)phenyl)pyrrolo[1,2-c]pyrimidin-5-yl)pyrrolidin-1-yl)prop-2-en-1-one]
> 50 | < 100 | – | C=CC(=O)Nc1cccc(-c2cc(-c3ccc(Oc4cc(C(F)(F)F)ccn4)cc3)cc3cncnc23)c1 [C175, N-(3-(6-(4-((4-(trifluoromethyl)pyridin-2-yl)oxy)phenyl)quinazolin-8-yl)phenyl)acrylamide]
< 50 | – | – | C=CC(=O)N1CCC(c2cc(-c3ccc(C(=O)Nc4ccccn4)cc3F)n3cnccc23)C1 (stereo not drawn) [C126, 4-(5-(1-acryloylpyrrolidin-3-yl)pyrrolo[1,2-c]pyrimidin-7-yl)-3-fluoro-N-(pyridin-2-yl)benzamide]
> 50 | < 100 | – | C=CC(=O)Nc1cccc(-c2cc(-c3ccc(Oc4ccccn4)cc3OC)cc3cnc(N)nc23)c1 [C166, N-(3-(2-amino-6-(2-methoxy-4-(pyridin-2-yloxy)phenyl)quinazolin-8-yl)phenyl)acrylamide]
< 50 | – | – | C=CC(=O)N1CCC(c2cc(-c3ccc(C(=O)Nc4cc(C(F)(F)F)ccn4)c(F)c3)n3cnccc23)C1 (stereo not drawn) [C152, 4-(5-(1-acryloylpyrrolidin-3-yl)pyrrolo[1,2-c]pyrimidin-7-yl)-2-fluoro-N-(4-(trifluoro-methyl)pyridin-2-yl)benzamide]
– | < 100 | – | CC#CC(=O)N1CCC(c2nc(-c3ccc(C(=O)Nc4cc(C5CC5)ccn4)c(F)c3)n3c(N)nccc23)C1 (stereo not drawn) [C247, 4-(5-amino-1-(1-(but-2-ynoyl)pyrrolidin-3-yl)imidazo[1,5-c]pyrimidin-3-yl)-N-(4-cyclopropylpyridin-2-yl)-2-fluorobenzamide]
